Measurements: patent US20090306122A1, “SUBSTITUTED TETRAHYDROPYRROLOQUINOLINE DERIVATIVES AS KINASE MODULATORS, ESPECIALLY OF TYROSINE AND RAF KINASES” (priority 2005, published 2009)

What follows are molecules tested against T1, IGF1-R kinase (Homo sapiens, UniProt P08069) (assay: Assay for the determination of IGF1-R kinase inhibition (AlphaScreen)). Settings: ATP 1 μM, biotinylated poly Glu, Tyr 4:1.
T1 construct: purchased ProQinase
Format: biochemical
From the text: Assay for the Determination of IGF1-R Kinase Inhibition
Lit.: G. Warner et al., Current Medicinal Chemistry, 2004, 11, 721-730
Use is made of AlphaScreen technology [(Amplified Luminescent Proximity Homogenous Assay), PerkinElmer], which is based on the amplification of a signal generated on interaction of so-called donor and acceptor beads. The convergence of two molecules can be measured very sensitively via this system.
The AlphaScreen test is based on traditional kinase tests, with the exception that the kinase activity is detected non-radioactively.
The binding of molecules which have been captured on the beads results in energy transfer from one bead to the other, which ultimately results in a luminescence/fluorescence signal.
In the absence of IGF1-R kinase activity, no signal is detected.
The kinase phosphorylates the biotinylated polypeptide (poly Glu, Tyr, 4:1) on the tyrosine.
The phosphorylated biotinylated peptide binds to streptavidin donor beads (biotin-streptavidin binding). The anti-phospho-tyrosine P-Tyr-100 antibody bound to the acceptor beads binds to phospho-tyrosine via the antigen binding site, giving a complex of:
Donor bead-streptavidin <->biotin-phosphopeptide (P substrate)<->antiphospho antibody-acceptor bead
If light having a wavelength of 680 nm is incident, the donor beads produce singlet oxygen, which, on adequate spatial proximity of the acceptor beads (only on formation of complex), causes the latter to emit at 520/620 nm.
Test procedure: the test is carried out in a 384-well OptiPlate™-384 Art.: 6007290 from Perkin Elmer
IGF1-R, enzyme from “ProQinase” • IGF1-R, 20 μl • Final concentration: 0.5 ng of kinase/well • (in 50 mM MOPS assay buffer pH 7.0 (comprising 0.20 mM • EDTA; 5.0 mM MnCl2; 10 mM MgCl2; 0.002% of BriJ; 0.002% of 2-mercaptoethanol and 0.1% of BSA) • +Test substance or standard sample, 3.0 μl • are pipetted into MTP well, shaken briefly and pre-incubated.
Pre-incubation: 30 minutes at RT (with continuous gentle shaking)
ATP/biotinylated substrate mix, 10 μl is added • ATP adenosine 5′-triphosphate, disodium salt (Calbiochem)/biotinylated poly Glu, Tyr, 4:1 (from Perkin Elmer) • Final concentration of ATP: 1 μM • Final concentration of biotinylated poly Glu, Tyr, 4:1:1 nM • Shake briefly and incubate. • Incubation: 45 minutes at RT (with continuous gentle shaking) 3. • Beads, P-Tyr-100 acceptor beads; antiphosphotyrosine (P-Tyr-100) acceptor beads • and simultaneously Streptavidin donor beads, 20 μl, are pipetted into well in a darkened room and shaken briefly. • Final concentration: 5 μg/ml of beads • Acceptor/donor beads are prepared shortly in advance in AlphaScreen detection/stop buffer (25 mM HEPES buffer comprising 100 mM NaCl, 0.1% of BSA, 100 mM EDTA). • This is followed by • Incubation: 20 hours at RT in the dark • Measurement: on the fusion a screen in Alpha programme 1 sec.

T1 sequence (P08069 31-1367): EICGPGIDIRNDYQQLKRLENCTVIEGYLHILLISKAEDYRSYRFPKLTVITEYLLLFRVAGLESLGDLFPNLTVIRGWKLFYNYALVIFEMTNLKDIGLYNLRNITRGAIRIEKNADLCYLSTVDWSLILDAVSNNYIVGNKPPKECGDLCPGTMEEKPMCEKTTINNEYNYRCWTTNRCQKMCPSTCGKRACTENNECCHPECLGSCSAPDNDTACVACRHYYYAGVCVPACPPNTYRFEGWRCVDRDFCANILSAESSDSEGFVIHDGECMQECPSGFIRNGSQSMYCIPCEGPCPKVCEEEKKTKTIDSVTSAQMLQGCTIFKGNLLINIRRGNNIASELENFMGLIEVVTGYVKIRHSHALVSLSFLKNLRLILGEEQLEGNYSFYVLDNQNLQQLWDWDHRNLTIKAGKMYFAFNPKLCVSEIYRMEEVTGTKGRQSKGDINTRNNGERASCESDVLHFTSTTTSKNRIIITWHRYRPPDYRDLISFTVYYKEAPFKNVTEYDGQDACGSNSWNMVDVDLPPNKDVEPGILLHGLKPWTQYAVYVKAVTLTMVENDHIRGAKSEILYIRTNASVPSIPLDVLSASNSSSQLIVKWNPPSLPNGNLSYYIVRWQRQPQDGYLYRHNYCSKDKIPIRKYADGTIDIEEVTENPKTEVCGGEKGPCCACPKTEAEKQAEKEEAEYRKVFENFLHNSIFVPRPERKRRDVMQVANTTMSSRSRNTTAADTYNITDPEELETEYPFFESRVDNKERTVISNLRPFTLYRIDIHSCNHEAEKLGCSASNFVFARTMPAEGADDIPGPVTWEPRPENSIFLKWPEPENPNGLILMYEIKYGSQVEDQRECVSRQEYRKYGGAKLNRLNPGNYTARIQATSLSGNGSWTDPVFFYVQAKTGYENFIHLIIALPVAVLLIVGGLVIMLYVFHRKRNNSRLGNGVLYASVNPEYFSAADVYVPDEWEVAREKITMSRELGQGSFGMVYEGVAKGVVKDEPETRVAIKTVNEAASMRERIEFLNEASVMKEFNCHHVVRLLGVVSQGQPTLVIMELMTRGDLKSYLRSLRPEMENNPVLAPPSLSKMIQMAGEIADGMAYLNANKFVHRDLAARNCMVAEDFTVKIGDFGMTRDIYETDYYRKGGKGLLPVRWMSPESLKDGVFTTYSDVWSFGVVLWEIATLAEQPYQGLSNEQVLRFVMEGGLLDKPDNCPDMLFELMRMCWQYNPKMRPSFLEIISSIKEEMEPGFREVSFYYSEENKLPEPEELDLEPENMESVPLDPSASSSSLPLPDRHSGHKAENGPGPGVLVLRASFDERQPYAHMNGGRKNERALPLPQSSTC

Row | Compound | IC50 [nM]
1 | COc1cccc(C2CC(N3CCCC3=O)c3cc(F)cc4c3N2CC4)c1 (centres unmarked) [Compound 1, 6-(2-oxopyrrolidin-1-yl)-8-fluoro-4-(3-methoxyphenyl)-1,2,5,6-tetrahydro-4H-pyrrolo[3,2,1-ij]quinoline] | 29000
2 | O=C1CCCN1C1CC(c2cccc(Cl)c2Cl)N2CCc3cccc1c32 (centres unmarked) [Compound 2] | 5000
3 | O=C1CCCN1C1CC(c2cccc(Br)c2)N2CCc3cccc1c32 (centres unmarked) [Compound 3] | 1300
4 | O=C1CCCN1C1CC(c2ccc(Cl)cc2F)N2CCc3cccc1c32 (centres unmarked) [Compound 4] | 1500
5 | O=C1CCCN1C1CC(c2cccc(Cl)c2)N2CCc3cccc1c32 (centres unmarked) [Compound 6] | 2900
6 | O=C1CCCN1C1CC(c2cccc(C(F)(F)F)c2)N2CCc3cccc1c32 (centres unmarked) [Compound 7] | 4500
7 | CC(C)(C)c1ccc(C2CC(N3CCCC3=O)c3cccc4c3N2CC4)cc1 (centres unmarked) [Compound 8] | 1600
8 | CC(C)c1ccc(C2CC(N3CCCC3=O)c3cccc4c3N2CC4)cc1 (centres unmarked) [Compound 9] | 2000
9 | Cc1cccc(C2CC(N3CCCC3=O)c3cccc4c3N2CC4)c1 (centres unmarked) [Compound 10] | 3600
10 | O=C1CCCN1C1CC(c2ccccc2Br)N2CCc3cccc1c32 (centres unmarked) [Compound 12] | 2500
11 | O=C1CCCN1C1CC(c2cc(C(F)(F)F)cc(C(F)(F)F)c2)N2CCc3cccc1c32 (centres unmarked) [Compound 13] | 5690
12 | O=C1CCCN1C1CC(c2ccc(Cl)c([N+](=O)[O-])c2)N2CCc3cccc1c32 (centres unmarked) [Compound 14] | 6000
13 | O=C1CCCN1C1CC(c2ccccc2F)N2CCc3cccc1c32 (centres unmarked) [Compound 15] | 1500
14 | Cc1ccc(C2CC(N3CCCC3=O)c3cccc4c3N2CC4)cc1 (centres unmarked) [Compound 17] | 2600
15 | O=C1CCCN1C1CC(c2ccc(Br)cc2F)N2CCc3cccc1c32 (centres unmarked) [Compound 18] | 2100
16 | Cc1ccc(C2CC(N3CCCC3=O)c3cccc4c3N2CC4)cc1[N+](=O)[O-] (centres unmarked) [Compound 19] | 3300
17 | CC(C)(C)OC(=O)Oc1ccc(C2CC(N3CCCC3=O)c3cccc4c3N2CC4)cc1 (centres unmarked) [Compound 21] | 1800
18 | O=C1CCCN1C1CC(c2ncc(C(F)(F)F)cc2Cl)N2CCc3cccc1c32 (centres unmarked) [Compound 22] | 1700
19 | O=C1CCCN1C1CC(c2cc(F)cc(F)c2)N2CCc3cccc1c32 (centres unmarked) [Compound 24] | 3300
20 | CCOc1ccccc1C1CC(N2CCCC2=O)c2cccc3c2N1CC3 (centres unmarked) [Compound 26] | 1400
21 | O=C1CCCN1C1CC(c2ccccc2OCc2ccccc2)N2CCc3cccc1c32 (centres unmarked) [Compound 29] | 1100
22 | COc1cccc(C2CC(N3CCCC3=O)c3cccc4c3N2CC4)c1 (centres unmarked) [Compound 31] | 2000
23 | COc1ccccc1C1CC(N2CCCC2=O)c2cccc3c2N1CC3 (centres unmarked) [Compound 32] | 6000
24 | O=C1CCCN1C1CC(c2cccc3c2OCO3)N2CCc3cccc1c32 (centres unmarked) [Compound 34] | 4800
25 | CCOc1ccc(C2CC(N3CCCC3=O)c3cccc4c3N2CC4)c(OCC)c1C (centres unmarked) [Compound 35] | 3500
26 | O=C1CCCN1C1CC(c2ccc(-c3ccccc3[N+](=O)[O-])o2)N2CCc3cccc1c32 (centres unmarked) [Compound 37] | 260
27 | COc1cccc(C2CC(N(C)C(C)=O)c3cccc4c3N2CC4)c1 (centres unmarked) [Compound 38] | 2100
28 | O=C1CCCN1C1CC(c2cccc(OCc3ccccc3)c2)N2CCc3cc(F)cc1c32 (centres unmarked) [Compound 40] | 2700
29 | O=C1CCCN1C1CC(c2cccc(-c3ccc(F)cc3)c2)N2CCc3cccc1c32 (centres unmarked) [Compound 42] | 5500
30 | O=C1CCCN1C1CC(c2cccc(-c3ccc(C(F)(F)F)cc3)c2)N2CCc3cccc1c32 (centres unmarked) [Compound 43] | 7400

Other lines, results leading:

Row | IC50 [nM] | Compound
31 | 2200 | CCc1ccc(C2CC(N3CCCC3=O)c3cccc4c3N2CC4)cc1 (centres unmarked) [Compound 5]
32 | 3500 | CCCc1ccc(C2CC(N3CCCC3=O)c3cccc4c3N2CC4)cc1 (centres unmarked) [Compound 11]
33 | 3100 | O=C1CCCN1C1CC(c2ccccc2Cl)N2CCc3cccc1c32 (centres unmarked) [Compound 16]
34 | 10000 | O=C1CCCN1C1CC(c2cc(F)cc(C(F)(F)F)c2)N2CCc3cccc1c32 (centres unmarked) [Compound 20]
35 | 4000 | O=C1CCCN1C1CC(c2ccc(Cl)cc2Cl)N2CCc3cccc1c32 (centres unmarked) [Compound 23]
36 | 190 | COc1cccc(C2CC(N3CCCC3=O)c3cccc4c3N2CC4)c1OC (centres unmarked) [Compound 25]
37 | 2100 | COc1ccc(OC)c(C2CC(N3CCCC3=O)c3cccc4c3N2CC4)c1 (centres unmarked) [Compound 27]
38 | 2100 | COc1cccc(OC)c1C1CC(N2CCCC2=O)c2cccc3c2N1CC3 (centres unmarked) [Compound 28]
39 | 2800 | O=C1CCCN1C1CC(c2cccc(OCc3ccccc3)c2)N2CCc3cccc1c32 (centres unmarked) [Compound 30]
40 | 2100 | COc1ccc(Oc2cccc(C3CC(N4CCCC4=O)c4cccc5c4N3CC5)c2)cc1 (centres unmarked) [Compound 33]
41 | 930 | COc1cc(C2CC(N3CCCC3=O)c3cccc4c3N2CC4)ccc1OC(=O)OC(C)(C)C (centres unmarked) [Compound 36]
42 | 4500 | O=C1CCCN1C1CC(c2ccccc2Cl)N2CCc3cc(F)cc1c32 (centres unmarked) [Compound 41]
43 | 21000 | O=C1CCCN1C1CC(c2cccc(-c3cccc(OC(F)(F)F)c3)c2)N2CCc3cccc1c32 (centres unmarked) [Compound 44]
44 | 14000 | O=C(O)c1ccc(C2CC(N3CCCC3=O)c3cccc4c3N2CC4)cc1 (centres unmarked) [Compound 45]
